PubChem BioAssay (NCI)
“And” between values parts separate entries of the source, which are not always exact repeats. Equal values may be shown once.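 All cell lines were grown in 96-well plates and treated with compound for 48 hours. At the GI50, growth is halved. At the TGI there is no net growth.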

How the values were obtained:
Assay in all cases: growth of human tumour cells (NCI), 48 h
[1] = tested on: RPMI-8226 leukemia
[2] = tested on: CCRF-CEM leukemia
[3] = tested on: HT29 colon
[4] = tested on: HOP-62 NSCLC
[5] = tested on: COLO 205 colon
[6] = tested on: XF 498 CNS
[7] = tested on: EKVX NSCLC
[8] = tested on: SF-268 CNS
[9] = tested on: LXFL 529 NSCLC
[10] = tested on: OVCAR-5 ovarian
[11] = tested on: RXF 393 renal
[12] = tested on: OVCAR-8 ovarian
[13] = tested on: UACC-257 melanoma
[14] = tested on: U251 CNS
[15] = tested on: HL-60(TB) leukemia
[16] = tested on: LOX IMVI melanoma
[17] = tested on: NCI-H522 lung
[18] = tested on: ACHN renal
[19] = tested on: SW-620 colon
[20] = tested on: SF-295 CNS
[21] = tested on: A549 NSCLC
[22] = tested on: NCI-H226 lung
[23] = tested on: SK-MEL-28 melanoma
[24] = tested on: OVCAR-3 ovarian
[25] = tested on: SN12C renal
[26] = tested on: SK-OV-3 ovarian
[27] = tested on: UO-31 renal
[28] = tested on: CAKI-1 renal
[29] = tested on: RXF-631 renal
[30] = tested on: DMS 114 small cell lung
[31] = tested on: SK-MEL-5 melanoma
[32] = tested on: DLD-1 colon
[33] = tested on: K-562 leukemia
[34] = tested on: 786-0 renal
[35] = tested on: DMS 273 small cell lung
[36] = tested on: SNB-75 CNS
[37] = tested on: HCT-15 colon
[38] = tested on: MALME-3M melanoma
[39] = tested on: TK-10 renal
[40] = tested on: NCI-H460 lung
[41] = tested on: KM20L2 colon
[42] = tested on: OVCAR-4 ovarian
[43] = tested on: HCC-2998 colon
[44] = tested on: HOP-18 NSCLC
[45] = tested on: NCI-H23 lung
[46] = tested on: SNB-78 CNS
[47] = tested on: SNB-19 CNS
[48] = tested on: SK-MEL-2 melanoma
[49] = tested on: KM12 colon
[50] = tested on: MOLT-4 leukemia
[51] = tested on: HOP-92 NSCLC
[52] = tested on: M14 melanoma
[53] = tested on: A498 renal
[54] = tested on: SF-539 CNS
[55] = tested on: UACC-62 melanoma
[56] = tested on: SR leukemia
[57] = tested on: IGROV1 ovarian
[58] = tested on: M19-MEL melanoma
[59] = tested on: HCT-116 colon
[60] = tested on: PC-3 prostate
[61] = tested on: MDA-MB-231 breast
[62] = tested on: MDA-N
[63] = tested on: BT-549 breast
[64] = tested on: DU-145 prostate
[65] = tested on: T-47D breast
[66] = tested on: HS 578T breast

Structure (SMILES): COc1cc(C(=O)CC2(O)C(=O)Nc3c(Cl)cc(Cl)cc32)ccc1O (stereo not drawn)
- TGI [1]: > 100 µM
- TGI [2]: > 100 µM
- TGI [3]: > 100 µM
- TGI [4]: > 100 µM
- TGI [5]: 83.5 µM
- TGI [6]: > 100 µM
- TGI [7]: > 100 µM
- TGI [8]: > 100 µM
- TGI [9]: > 100 µM
- TGI [10]: > 100 µM
- TGI [11]: > 100 µM
- TGI [12]: > 100 µM
- TGI [13]: > 100 µM
- TGI [14]: > 100 µM
- TGI [15]: > 100 µM
- TGI [16]: > 100 µM
- TGI [17]: > 100 µM
- TGI [18]: > 100 µM
- TGI [19]: > 100 µM
- TGI [20]: > 100 µM
- TGI [21]: > 100 µM
- TGI [22]: > 100 µM
- TGI [23]: > 100 µM
- TGI [24]: > 100 µM
- TGI [25]: > 100 µM
- TGI [26]: > 100 µM
- TGI [27]: > 100 µM
- TGI [28]: > 100 µM
- TGI [29]: > 100 µM
- TGI [30]: > 100 µM
- TGI [31]: > 100 µM
- TGI [32]: > 100 µM
- TGI [33]: > 100 µM
- TGI [34]: > 100 µM
- TGI [35]: > 100 µM
- TGI [36]: 93 µM
- TGI [37]: > 100 µM
- TGI [38]: > 100 µM
- TGI [39]: > 100 µM
- TGI [40]: > 100 µM
- TGI [41]: > 100 µM
- TGI [42]: > 100 µM
- TGI [43]: 88.7 µM
- TGI [44]: > 100 µM
- TGI [45]: > 100 µM
- TGI [46]: > 100 µM
- TGI [47]: > 100 µM
- TGI [48]: > 100 µM
- TGI [49]: > 100 µM
- TGI [50]: > 100 µM
- TGI [51]: > 100 µM
- TGI [52]: > 100 µM

Structure (SMILES): [C-]#[N+]C(C)(C)C[C@H]1CC(C)C2CCC(C)C3([N+]#[C-])CCC(=C)C1[C@H]23 (stereo partly drawn)
- TGI [2]: > 50 µM
- TGI [53]: 23.9 µM
- TGI [3]: 11.7 µM
- TGI [4]: 19.3 µM
- TGI [5]: 0.65 µM
- TGI [6]: 10.1 µM
- TGI [7]: 35.8 µM
- TGI [8]: 10.5 µM
- TGI [9]: 23.4 µM
- TGI [10]: 8.49 µM
- TGI [11]: 10.5 µM
- TGI [54]: 13.7 µM
- TGI [12]: 9.22 µM
- TGI [13]: 10.9 µM
- TGI [14]: 11.8 µM
- TGI [15]: 12.6 µM
- TGI [16]: 0.421 µM
- TGI [17]: 12.2 µM
- TGI [18]: 6.58 µM
- TGI [19]: 12.7 µM
- TGI [55]: 11.5 µM
- TGI [20]: 24.1 µM
- TGI [21]: 21.7 µM
- TGI [22]: 10.7 µM
- TGI [23]: > 50 µM
- TGI [56]: 8.74 µM
- TGI [24]: 14.1 µM
- TGI [25]: 8.85 µM
- TGI [26]: 45.3 µM
- TGI [27]: 8.66 µM
- TGI [28]: 20.1 µM
- TGI [29]: 6.58 µM
- TGI [57]: 47.4 µM
- TGI [31]: 5 µM
- TGI [32]: 9.29 µM
- TGI [33]: > 50 µM
- TGI [34]: 15.3 µM
- TGI [35]: 2.55 µM
- TGI [58]: 9.43 µM
- TGI [59]: 6.6 µM
- TGI [36]: 49.7 µM
- TGI [38]: 25.3 µM
- TGI [39]: 21.4 µM
- TGI [41]: 11.6 µM
- TGI [42]: 13.1 µM
- TGI [43]: 14.7 µM
- TGI [44]: 14.4 µM
- TGI [45]: 19.6 µM
- TGI [46]: 12 µM
- TGI [47]: 17.5 µM
- TGI [48]: 2.67 µM
- TGI [49]: 11.8 µM
- TGI [50]: 5.25 µM
- TGI [51]: 0.256 µM
- TGI [52]: 9.93 µM

Structure (SMILES): Cc1cc2c(C(C)C)c(O)c(O)c(C=O)c2c(O)c1-c1c(C)cc2c(C(C)C)c(O)c(O)c(C=O)c2c1O
- TGI [60]: 7.11 µM and 33.8 µM and 24.5 µM
- GI50 [61]: 14.8 µM and 6.06 µM
- TGI [61]: 34.5 µM and 16.6 µM
- TGI [6]: 5.55 µM
- TGI [9]: 8.26 µM
- TGI [19]: 30.8 µM [middle of 4 runs]
- GI50 [23]: 2.39 µM and 18 µM and 9.01 µM
- TGI [62]: > 100 µM
- TGI [26]: 8.26 µM and 50.9 µM and 31 µM
- TGI [29]: 25.3 µM
- TGI [63]: 7.42 µM and 41.7 µM and 29.8 µM
- TGI [30]: 9.21 µM
- TGI [64]: 4.04 µM and 36.8 µM and 29.4 µM
- TGI [32]: 15.5 µM
- TGI [65]: 7.76 µM and 50.5 µM and 26.4 µM
- TGI [66]: 13.5 µM and 36 µM and 27.8 µM
- TGI [35]: 18.3 µM
- TGI [58]: 11.4 µM
- TGI [41]: 11.4 µM
- TGI [44]: 11.3 µM
- TGI [46]: 25.8 µM
